# Data reported in patent US3984432A, “Color photographic recording material” (priority 1973, dated 1976).
# Test: Absorption maximum after colour development in a photographic silver halide layer according to Use Example I
# Format: physicochemical
# Conditions: for Abs.max., first of two maxima (subsidiary maximum) / Abs.max., second of two maxima (absorption maximum): pyrazolone coupling agents
# Experimental: The compounds of the formulae which follow are prepared according to methods which are in themselves known, from the corresponding 4-equivalentcoupling agents (the corresponding compounds with hydrogen in the position marked with *, in place of the substituents drawn). With regard to methods of manufacture, compare DT-OS or DT-AS 1,236,332, 2,043,271, 1,547,672 or 1,187,477. Next to the formula, the absorption maximum in nm is specified in each case (see footnote to Table I). ##SPC8##
# *)After colour development of the coupling agents in a photographic silve
# halide layer according to Use Example I
# 0.3 mmol of coupling agent of the formula (215) is dissolved in 2.0 ml of tricresyl phosphate/methylene chloride (3:7). The methylene chloride is evaporated off, 6.0 ml of an 8% strength aqueous solution of sodium isopropylnaphthalene-sulphonate, 20.0 ml of 6% strength gelatine solution and 3.4 ml of water are added and the mixture is adjusted to pH 6.5 and emulsified for 5 minutes by means of an ultrasonic apparatus with an output of 100 watt.
# 5.0 of coupling agent emulsion freshly treated with ultrasonics, 3.3 ml of silver bromide emulsion of pH 6.5, containing 1.4% of silver and 6.0% of gelatine, 2.0 ml of 1% strength aqueous solution of the hardener of the formula [formula] and 1.7 ml of water are mixed with one another and cast at 40°C on a substrated glass plate of size 13 cm × 18 cm. After solidifying at 10° C, the plate is dried in a drying cabinet with circulating air at 32° C.
# A strip cut to 4.0 cm × 6.5 cm is exposed to 500 Lux/cm^2 under a step wedge for 2 seconds and is subsequently treated at 24° C as follows: […]
Compound,"Abs.max., first of two maxima (subsidiary maximum)","Abs.max., second of two maxima (absorption maximum)",Abs.max. (single maximum)
CCCCC(CC)COP(=O)(CCCOc1cccc(C(=O)Nc2cccc(C(=O)NC3=NN(c4ccccc4)C(=O)C3)c2)c1)OCC(CC)CCCC (centres unmarked) [(225)],440 nm,532 nm,–
CCOP(=O)(CCCN(C)c1cccc(NC(=O)CC(=O)c2ccccc2)c1)OCC [(104)],–,–,435 nm
CCOP(=O)(CCCOc1ccc(NC2=NN(c3ccccc3)C(=O)C2)cc1)OCC [(405)],428 nm,526 nm,–
CCOP(=O)(CCCOc1cc(OCCCP(=O)(OCC)OCC)cc(C(=O)Nc2cccc(C(=O)NC3=NN(c4ccccc4)C(=O)C3)c2)c1)OCC [(228)],438 nm,533 nm,–
CCOP(=O)(CCCc1ccc(NC2=NN(c3cccc(Cl)c3)C(=O)C2)cc1)OCC [(410)],438 nm,532 nm,–
CCOP(=O)(CCCOc1cccc(NC2=NN(c3cccc(Cl)c3)C(=O)C2)c1)OCC [(402)],430 nm,534 nm,–
Cc1ccc(C(=O)NCCCP2(=O)OCC(C)(C)CO2)cc1NC(=O)CC(=O)c1ccc(Cl)cc1 [(139)],–,–,441 nm
CCCCC(CC)COP(=O)(CCCOc1cccc(C(=O)Nc2cccc(C(=O)NC3=NN(c4c(Cl)cc(OC)cc4Cl)C(=O)C3)c2)c1)OCC(CC)CCCC (centres unmarked) [(267)],436 nm,536 nm,–
CCCCOP(=O)(CCCOc1cc(OCCCP(=O)(OCCCC)OCCCC)cc(C(=O)Nc2cccc(C(=O)NC3=NN(c4c(C)cc(C)cc4Cl)C(=O)C3)c2)c1)OCCCC [(261)],440 nm,535 nm,–
CCOP(=O)(Cc1ccc(NC(=O)CC(=O)c2ccccc2)cc1)OCC [(102)],–,–,438 nm
COc1ccc(C(=O)C(Cl)C(=O)Nc2ccc(OP(=O)(Oc3ccccc3)C(C)(C)C)cc2)cc1 (centres unmarked) [(146)],–,–,437 nm
CCCCCCOP(=O)(OCCCCCC)c1ccc(NC(=O)c2cccc(NC(=O)CC(=O)c3ccc(Cl)cc3)c2)cc1 [(145)],–,–,449 nm
CCOP(=O)(CCCOc1ccc(NC2=NN(c3c(Cl)cc(Cl)cc3Cl)C(=O)C2)cc1)OCC [(404)],425 nm,530 nm,–
CCCCOP(=O)(CCCOc1cccc(C(=O)Nc2ccc(NC3=NN(c4ccccc4)C(=O)C3)cc2)c1)OCCCC [(417)],428 nm,530 nm,–
CCOP(=O)(CCCCCOc1cccc(C(=O)NC2=NN(c3c(Cl)cc(Cl)cc3Cl)C(=O)C2)c1)OCC [(213)],434 nm,537 nm,–
CCCCC(CC)COP(=O)(CCCOc1cc(OCCCP(=O)(OCC(CC)CCCC)OCC(CC)CCCC)cc(C(=O)Nc2ccc(C(=O)NC3=NN(c4c(Cl)cc(Cl)cc4Cl)C(=O)C3)cc2)c1)OCC(CC)CCCC (centres unmarked) [(234)],434 nm,540 nm,–
CCOP(=O)(CCCCCOc1cccc(C(=O)Nc2cccc(C(=O)NC3=NN(c4c(Cl)cc(Cl)cc4Cl)C(=O)C3)c2)c1)OCC [(230)],434 nm,544 nm,–
CCCCOP(=O)(CCCOc1cc(OCCCP(=O)(OCCCC)OCCCC)cc(C(=O)Nc2cccc(C(=O)NC3=NN(c4c(C)cc(OC)cc4Cl)C(=O)C3)c2)c1)OCCCC [(260)],440 nm,535 nm,–
CCCCC(CC)COP(=O)(CCCOc1cccc(OCC(=O)Nc2cccc(C(=O)NC3=NN(c4c(C)cc(C)cc4Cl)C(=O)C3)c2)c1)OCC(CC)CCCC (centres unmarked) [(271)],440 nm,532 nm,–
CCCCOP(=O)(CCCOc1cc(OCCCP(=O)(OCCCC)OCCCC)cc(C(=O)NC2=NN(c3ccc(C#N)cc3)C(=O)C2)c1)OCCCC [(253)],440 nm,540 nm,–
CCOP(=O)(CC(=O)Nc1cccc(NC(=O)CC(=O)c2ccccc2)c1)OCC [(106)],–,–,442 nm

Compound,"Abs.max., first of two maxima (subsidiary maximum)","Abs.max., second of two maxima (absorption maximum)",Abs.max. (single maximum)
CCOP(=O)(CCCOc1cccc(NC2=NN(c3c(Cl)cc(Cl)cc3Cl)C(=O)C2)c1)OCC [(403)],424 nm,526 nm,–
CCCCOP(=O)(Cc1ccc(CP(=O)(OCCCC)OCCCC)c(NC(=O)c2ccc(OC)c(NC(=O)CC(=O)c3ccccc3OCC)c2)c1)OCCCC [(137)],–,–,425 nm
CCCCC(CC)COP(=O)(CCCOc1cccc(C(=O)Nc2cccc(C(=O)NC3=NN(c4c(C)cc(Cl)cc4Cl)C(=O)C3)c2)c1)OCC(CC)CCCC (centres unmarked) [(269)],438 nm,540 nm,–
CCCCC(CC)COP(=O)(CCCOc1cccc(NC(=O)CC(=O)c2ccccc2)c1)OCC(CC)CCCC (centres unmarked) [(122)],–,–,436 nm
CCOP(=O)(CCCc1ccc(NC(=O)CC(=O)C(C)(C)C)cc1)OCC [(103)],–,–,429 nm
CCCCOP(=O)(CCCOc1cc(OCCCP(=O)(OCCCC)OCCCC)cc(C(=O)Nc2cccc(C(=O)NC3=NN(c4nc5ccccc5s4)C(=O)C3)c2)c1)OCCCC [(258)],550 nm,580 nm,–
CCCCC(CC)COP(=O)(CCCOc1cccc(NC2=NN(c3cccc(Cl)c3)C(=O)C2)c1)OCC(CC)CCCC (centres unmarked) [(413)],428 nm,533 nm,–
CCCCOP(=O)(CCCOc1cc(OCCCP(=O)(OCCCC)OCCCC)cc(C(=O)Nc2cccc(C(=O)NC3=NN(c4cccc(Cl)c4)C(=O)C3)c2)c1)OCCCC [(255)],438 nm,536 nm,–
CCCCOP(=O)(CCCOc1cc(OCCCP(=O)(OCCCC)OCCCC)cc(C(=O)Nc2cccc(C(=O)NC3=NN(c4c(C)cc(Cl)cc4Cl)C(=O)C3)c2)c1)OCCCC [(272)],438 nm,540 nm,–
CC(C)OP(=O)(CCCCCOc1cccc(C(=O)Nc2cccc(C(=O)NC3=NN(c4c(Cl)cc(Cl)cc4Cl)C(=O)C3)c2)c1)OC(C)C [(245)],434 nm,542 nm,–
CCCCOP(=O)(CCCOc1cccc(C(=O)Nc2ccc(C(=O)NC3=NN(c4c(Cl)cc(Cl)cc4Cl)C(=O)C3)cc2)c1)OCCCC [(211)],434 nm,543 nm,–
CCCCOP(=O)(CCCOc1cc(OCCCP(=O)(OCCCC)OCCCC)cc(C(=O)Nc2ccc(C(=O)NC3=NN(c4c(Cl)cc(Cl)cc4Cl)C(=O)C3)cc2)c1)OCCCC [(218)],436 nm,542 nm,–
CCOP(=O)(OCC)C(C)(C)NC(=O)c1cccc(NC(=O)CC(=O)c2ccc([N+](=O)[O-])cc2)c1 [(110)],–,–,440 nm
CC(C)OP(=O)(CCCCCOc1cc(OCCCCCP(=O)(OC(C)C)OC(C)C)cc(C(=O)Nc2cccc(C(=O)NC3=NN(c4c(Cl)cc(Cl)cc4Cl)C(=O)C3)c2)c1)OC(C)C [(243)],434 nm,544 nm,–
CCOP(=O)(CCCCCOc1cc(OCCCCCP(=O)(OCC)OCC)cc(C(=O)Nc2ccc(C(=O)NC3=NN(c4c(Cl)cc(Cl)cc4Cl)C(=O)C3)cc2)c1)OCC [(212)],434 nm,544 nm,–
CCCCC(CC)COP(=O)(CCCOc1cccc(C(=O)Nc2cccc(C(=O)CC(=O)Nc3cc(C)ccc3OC)c2)c1)OCC(CC)CCCC (centres unmarked) [(120)],–,–,434 nm
CCCCOP(=O)(CCCc1ccc(NC(=O)c2ccc(OC)c(NC(=O)CC(=O)c3ccc(OC)cc3)c2)cc1)OCCCC [(126)],–,–,448 nm
CCCCC(CC)COP(=O)(CCCOc1cccc(C(=O)Nc2cccc(C(=O)NC3=NN(c4nc5ccccc5s4)C(=O)C3)c2)c1)OCC(CC)CCCC (centres unmarked) [(259)],548 nm,583 nm,–
CCCCOP(=O)(Cc1ccc(CP(=O)(OCCCC)OCCCC)c(NC(=O)c2ccc(C)c(NC(=O)CC(=O)c3ccccc3Cl)c2)c1)OCCCC [(143)],–,–,440 nm
CCOP(=O)(CCCCCOc1cc(OCCCCCP(=O)(OCC)OCC)cc(C(=O)Nc2cccc(C(=O)NC3=NN(c4ccccc4)C(=O)C3)c2)c1)OCC [(226)],439 nm,534 nm,–
CCOP(=O)(CCCOc1cccc(C(=O)Nc2ccc(C(=O)NC3=NN(c4c(Cl)cc(Cl)cc4Cl)C(=O)C3)cc2)c1)OCC [(201)],432 nm,542 nm,–
